The values that follow come from publication PMC9863109 (Viruses, 2023).

Each structure is given as a SMILES string.

In series [1] the test system is ICR outbred mice. The note with it: mouse, in vivo.
For series [2], the system named is ICR outbred mice. As to conditions: mouse, in vivo. The source holds these as a separate data set.
In series [3] the test system is Wistar rats. The note with it: rat, in vivo.
In series [4] the test system is Wistar rats. The note with it: rat, in vivo. This is another data set of the same source.
For series [5] the following is noted: mouse, in vivo.
The test system of series [6] is ectromelia virus. As to conditions: mouse, in vivo, po; cited from earlier work.
Series [7] has as its system monkeypox virus strain V79-1-005. The note with it: mouse, in vivo, po; cited from earlier work.
For series [8], the system named is Ind-3a variola virus strain. As to conditions: mouse, in vivo, po; cited from earlier work.
Series [9] relates to monkeypox virus strain V79-1-005. As to conditions: in vivo, po; cited from earlier work.
In series [10] the test system is ectromelia virus. As to conditions: mouse, in vivo; cited from earlier work.
The test system of the next series is monkeypox virus. As to conditions: cynomolgus monkey, in vivo; cited from earlier work.
A short description of another series: in vivo. The note with it: both, ICR, mouse.
For series [11] the following is noted: cynomolgus monkey, in vivo; cited from earlier work.
For series [12] the following is noted: mouse, in vivo; cited from earlier work.
The subject of another series is animals. The note with it: in vivo, po; cited from earlier work.
Another series deals with BALB/c mice. As to conditions: mouse, in vivo; cited from earlier work.
In a further series the test system is NZW rabbits. As to conditions: rabbit, in vivo; cited from earlier work.
The subject of a further series is cynomolgus monkeys. As to conditions: cynomolgus monkey, in vivo; cited from earlier work.

With `O=C(NNC(=O)C1C2C=CC(C3CC23)C1C(=O)O)c1ccc(C(F)(F)F)cc1` (centres unmarked) [NIOCH-14, 7-({[(4-trifluoromethyl)phenyl]formohydrazido}carbonyl)tricyclo[3.2.2.0^2,4]non-8-en-6-carboxylic acid], in the series on ICR outbred mice [1], the “hazard class according to GOST 12.1.007-76” value is given as “low-hazard compound” and the “macroscopic pathomorphological changes in organs” value is reported as “no macroscopic pathomorphological changes”. Besides, in the series on ICR outbred mice [2], the WBC differential entry is reported as “remained unchanged”; the “effect on animals' appearance and behavior” value is reported as “no significant effect”; the “increase of platelet count vs. control group 1” value came out at 28%; the “reduction of WBC count vs. control group 1” value is reported as 23%. In the series on Wistar rats [3], the “changes in hematological parameters” value was “no significant changes”; the “effect on animals' appearance and behavior” value is “no significant effect”. In addition, in the series with Wistar rats [4], the animal death entry is listed as “did not cause animal death” and the “effect on hematological parameters” value is reported as “no significant effect”. In series [5], the “Absolute bioavailability Fabs” value is 22.8%, the “time of maximum concentration of ST-246 in serum” value came out at 15 min and the “visible adverse reactions to i/v administration” value is “no visible adverse reactions”. Also, the 50% effective dose with ectromelia virus [6] was 3.59 µg/g. Moreover, the “virus production in the lungs” value in series [7] is recorded as “significantly reduced virus production in the lungs”. The “number of infected mice and virus production in the lungs” value in series [8] was “significantly reduced”. Further, the signs of disease result in series [9] is “no signs of disease”.

Turning to `O=C(NN1C(=O)C2C3C=CC(C4CC34)C2C1=O)c1ccc(C(F)(F)F)cc1` (centres unmarked) [ST-246, N-{3,5-dioxo-4-azatetracyclo[5.3.2.0^2,6.0^8,10]dodec-11-en-4-yl}-4-(trifluoromethyl)benzamide], in series [5], the “visible adverse reactions to i/v administration” value is given as “no visible adverse reactions”. For the same compound, in the series with ectromelia virus [6], the 50% effective dose is listed as 5.08 µg/g. The “dose of optimal effectiveness” value in the series with ectromelia virus [10] was 100 µg/g. Further, the effective dose in the series with monkeypox virus was 3 µg/g. For the same compound, in the series “in vivo” (iv), the Tmax was 0.25 h and the half-life was 2 h. This compound also displayed a Cmax in the series “in vivo” (iv, Cmax) of 13200 ng/mL. Moreover, in “in vivo” (iv, maximum concentration (Cmax) of ST-246 in serum), the peak concentration (Cmax) was 13200 ng/mL. Moreover, in the series “in vivo” (po), the Tmax worked out at 3 h, the bioavailability stood at 12.1% and the half-life was 3.4 h. Further, the concentration in “in vivo” (po, Cmax) peaked (Cmax) at 15500 ng/mL. Besides, in “in vivo” (po, maximum concentration (Cmax) of ST-246 in serum), the Cmax was found to be 15500 ng/mL. In series [11], the “absolute oral bioavailability (Fabs)” value is recorded as 31-77%. In addition, in series [12], the T1/2 is 2.2 h, the Tmax in serum was 4.5 h and the “plasma Cmax” value is 44000 ng/mL. Also, the animal death result in the series on animals is on record as “did not cause death”. In the series on BALB/c mice, the “disorders or damage in the animals” value is reported as “no disorders or damage”. Also, the pathological effects result in the series on NZW rabbits is “No pathological effects”. In the series with cynomolgus monkeys, the pathological processes entry is “did not cause any pathological processes”.

In general, Tmax refers to the time from dosing to the highest level. Usually half-life stands for the time needed for the level to fall by half in the phase considered. A lower half-life goes with rapid decline. One may read the Cmax as the highest concentration seen after dosing. As usually defined, the bioavailability is dose-corrected exposure relative to a reference, in per cent. Low values mean little systemic uptake, high ones much systemic uptake.
